Laboratory results reported in ChEMBL document CHEMBL5053556, “Design, Synthesis, and Biological Evaluation of a Novel Series of Teriflunomide Derivatives as Potent Human Dihydroorotate Dehydrogenase Inhibitors for Malignancy Treatment” (J Med Chem, 2021).
Values after ≈ are worked out from the molar mass of the structure shown.

What was measured:
[1] = target: T1, Dihydroorotate dehydrogenase (quinone), mitochondrial (Homo sapiens, UniProt Q02127); conditions: dose 100.0 nM, time 30.0 min
[2] = target: T1, Dihydroorotate dehydrogenase (quinone), mitochondrial
Description: Inhibition of human DHODH using dihydroorotate substrate preincubated for 30 mins followed by substrate addition by DCIP based microplate reader analysis

[3] = test system: Raji; assay: Antiproliferative activity against human Raji cells assessed as cell growth inhibition incubated for 96 hrs by MTT assay; type: functional, cell-based
[4] = test system: L02; assay: cells; type: ADME, cell-based; conditions: Homo sapiens, L02, 96 h
Description: Cytotoxicity against human L02 cells assessed as cell growth inhibition incubated for 96 hrs by MTT assay

[5] = in vitro; conditions: human, L02 cells and Raji cells
Description: Selectivity index, ratio of IC50 for human L02 cells to IC50 for human Raji cells

[6] = physchem; conditions: aqueous
Description: Aqueous solubility of compound by UPLC method

[7] = test system: HCT-116; assay: Antiproliferative activity against human HCT-116 cells assessed as cell growth inhibition incubated for 96 hrs by MTT assay; type: functional, cell-based; conditions: HCT-116, 96 h
[8] = test system: A549; assay: Antiproliferative activity against human A549 cells assessed as cell growth inhibition incubated for 96 hrs by MTT assay; type: functional, cell-based; conditions: A549, 96 h
[9] = test system: K562; assay: Antiproliferative activity against human K562 cells assessed as cell growth inhibition incubated for 96 hrs by MTT assay; type: functional, cell-based; conditions: K562, 96 h
[10] = test system: A-375; assay: Antiproliferative activity against human A-375 cells assessed as cell growth inhibition incubated for 96 hrs by MTT assay; type: functional, cell-based; conditions: A-375, 96 h
[11] = test system: SK-MEL-28; assay: Antiproliferative activity against human SK-MEL-28 cells assessed as cell growth inhibition incubated for 96 hrs by MTT assay; type: functional, cell-based; conditions: SK-MEL-28, 96 h

T1 sequence (Q02127 whole entry): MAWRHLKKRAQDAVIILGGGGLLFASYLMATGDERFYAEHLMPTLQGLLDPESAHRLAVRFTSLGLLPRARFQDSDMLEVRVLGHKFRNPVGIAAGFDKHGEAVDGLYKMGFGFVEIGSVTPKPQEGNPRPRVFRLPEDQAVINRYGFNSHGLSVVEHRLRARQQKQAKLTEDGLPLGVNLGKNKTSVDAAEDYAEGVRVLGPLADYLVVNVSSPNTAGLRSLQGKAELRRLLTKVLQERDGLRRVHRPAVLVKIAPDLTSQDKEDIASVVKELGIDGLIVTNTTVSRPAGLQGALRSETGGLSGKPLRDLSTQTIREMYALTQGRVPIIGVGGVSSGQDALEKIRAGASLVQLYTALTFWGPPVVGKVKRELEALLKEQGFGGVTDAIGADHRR

| inhibition [1] [%] | IC50 [2] [nM] | IC50 [3] [nM] | SMILES | IC50 [4] [nM] | selectivity ratio [5] | also measured |
| --- | --- | --- | --- | --- | --- | --- |
| 7.5 |  |  | C/C(O)=C(\C#N)C(=O)Nc1cc(OC(C)C)c(C(=O)Nc2ccc(F)cc2)cc1F |  |  |  |
| 22.1 |  |  | C/C(O)=C(\C#N)C(=O)Nc1cc(OC(C)C)c(C(=O)Nc2cccc(F)c2)cc1F |  |  |  |
| 89.4 | 13.1 | 450 | C/C(O)=C(\C#N)C(=O)Nc1cc(OC(C)C)c(C(=O)Nc2c(Cl)cccc2Cl)cc1F | 2620 | 5.8 |  |
| 26.4 |  |  | C/C(O)=C(\C#N)C(=O)Nc1cc(F)c(C(=O)Nc2c(F)cccc2Cl)cc1F |  |  |  |
| 21.3 |  |  | COc1cccc(NC(=O)c2cc(F)c(NC(=O)/C(C#N)=C(/C)O)cc2OC(C)C)c1 |  |  |  |
| 96.9 | 7.3 | 35.1 | C/C(O)=C(\C#N)C(=O)Nc1cc(O[C@@H](C)C(F)(F)F)c(C(=O)Nc2c(Br)cccc2Br)cc1F | 426 | 13.1 | solubility [6]: 2100 µg/mL (≈ 3.45 mM) |
| 66.8 |  | 300 | COc1cccc(-c2cc(F)c(Nc3ncccc3C(=O)O)c(F)c2)c1 [ASLAN-003] | 487 |  | IC50 [7]: 5100 nM; IC50 [8]: 900 nM; IC50 [9]: 2700 nM; IC50 [10]: 700 nM; IC50 [11]: 1300 nM |
| 53.4 |  |  | C/C(O)=C(\C#N)C(=O)Nc1ccc(C(=O)Nc2c(F)cccc2F)c(OC(C)C)c1 |  |  |  |
| 85.4 | 18.2 | 347 | C/C(O)=C(\C#N)C(=O)Nc1cc(OC(C)C)c(C(=O)Nc2c(F)cccc2Br)cc1F | 2100 | 6.1 |  |
| 96.4 | 5.7 | 32.1 | C/C(O)=C(\C#N)C(=O)Nc1cc(O[C@@H](C)C(F)(F)F)c(C(=O)Nc2c(Cl)cccc2Cl)cc1F | 452 | 14.1 | solubility [6]: 2400 µg/mL (≈ 4.61 mM) |
| 27.4 |  |  | COc1cc(NC(=O)/C(C#N)=C(/C)O)c(F)cc1C(=O)Nc1c(F)cccc1F |  |  |  |
| 40.2 |  |  | CCOc1cc(NC(=O)/C(C#N)=C(/C)O)c(F)cc1C(=O)Nc1c(F)cccc1F |  |  |  |
| 85.8 | 17.4 | 573 | CCOc1cc(NC(=O)/C(C#N)=C(/C)O)c(F)cc1C(=O)Nc1c(Cl)cccc1Cl | 2710 | 4.7 |  |
| 72.7 | 40 |  | CCOc1cc(NC(=O)/C(C#N)=C(/C)O)c(F)cc1C(=O)Nc1c(F)cccc1Br |  |  |  |
